Experimental data published in US20190241569A1, “3-(ARYL OR HETEROARYL) METHYLENEINDOLIN-2-ONE DERIVATIVES AS INHIBITORS OF CANCER STEM CELL PATHWAY KINASES FOR THE TREATMENT OF CANCER” (Boston Biomedical, Inc., priority 2013, published 2019).

Assays:
human RIOK2 protein = target: T1, human RIOK2 protein (Homo sapiens, UniProt Q9BVS4); assay: RIOK2 autophosphorylation ELISA (Test Example 4); type: biochemical; conditions: for inhibition at 1 µM: read-out: Inhibitory activity at 1 μM (%); for inhibition at 10 µM: read-out: Inhibitory activity at 10 μM (%)
T1 construct: glutathione S-transferase is fused to N-terminal of a full-length human RIOK2 protein; GST (glutathione S-transferase) (N); purchased CarnaBio, Inc; host or cells: baculovirus-Sf21 cell expression system
Description: A protein in which glutathione S-transferase is fused to N-terminal of a full-length human RIOK2 protein was used as a recombinant human RIOK2 protein. The protein was prepared using a baculovirus-Sf21 cell expression system from CarnaBio, Inc. A kinase reaction solution was prepared by mixing 25 μg/mL of the recombinant human RIOK2 protein and 100 μM of ATP in 20 μl of kinase reaction buffer (50 mM Tris-HCl, 10 mM MgCl2, 10 mM MnCl2, 1 mM DTT, 0.01% Brij, 1× PhosSTOP (manufactured by Roche Applied Science)), and was incubated at a temperature of 30° C. for 1 hour. After adding 30 μl of 40 mM EDTA solution to this kinase reaction solution, the kinase reaction solution was transferred to a MaxiSorp 96 well plate (manufactured by Nunc). Thereafter, phosphorylated human RIOK2 protein was allowed to adsorb onto the wells by leaving the plate in a refrigerator overnight.
The following day, the supernatant was removed, and the wells were washed three times with ELISA buffer (20 mM Tris-HCl, 150 mM NaCl, 0.2% Tween-20, 0.1% BSA). Thereafter, 100 μl of Blocking-One P (product name; manufactured by Nacalai Tesque, Inc.) was applied to the wells, and a blocking treatment was performed for 1 hour at room temperature. […] After further washing the wells, a secondary antibody, anti-rabbit IgG conjugated with horseradish peroxidase (manufactured by Jackson ImmunoResearch; 1/4000 ELISA buffer-diluted solution), was applied to the wells, and incubation was performed for 30 minutes at room temperature. After washing the wells once again, 50 μl of tetramethyl benzidine (TMB) aqueous solution (manufactured by Nacalai Tesque, Inc.) was applied to the wells, and a coloring reaction was performed for 30 minutes at room temperature. Thereafter, the coloring reaction was stopped by adding 50 μl of 2M H2SO4 to the wells. An absorptiometric level of 450 nm was measured in each well using ARVO SX (manufactured by Wallac).

ACHN CSC = assay: Cancer stem cells, Cell Titer-Glo 72 hours (Test Example 3); type: cell-based; conditions: Homo sapiens, ACHN, 72 h
FaDu CSC = assay: as above; type: cell-based; conditions: Homo sapiens, FaDu, 72 h
A549 CSC = assay: as above; type: cell-based; conditions: Homo sapiens
ACHN = assay: Bulk cancer cells, Cell Titer-Glo 72 hours (Test Example 2); type: cell-based; conditions: Homo sapiens, ACHN, 72 h
Description: (§1) Tubes of 3× drug (60 uM in 500 uL complete media) were prepared from 5 mM stock solutions in DMSO. […] To treat cells, 50 uL of drug from the dilution plate was removed and added to the cell plates. […] Cells were harvested 72 hours after drug addition using Cell Titer-Glo (Promega) and luminescence measured on a plate reader.

FaDu = assay: as above; type: cell-based; conditions: Homo sapiens
Description: as §1

A549 = assay: as above; type: cell-based; conditions: Homo sapiens
Description: as §1

T1 sequence (Q9BVS4 whole entry, the tested form may be a part): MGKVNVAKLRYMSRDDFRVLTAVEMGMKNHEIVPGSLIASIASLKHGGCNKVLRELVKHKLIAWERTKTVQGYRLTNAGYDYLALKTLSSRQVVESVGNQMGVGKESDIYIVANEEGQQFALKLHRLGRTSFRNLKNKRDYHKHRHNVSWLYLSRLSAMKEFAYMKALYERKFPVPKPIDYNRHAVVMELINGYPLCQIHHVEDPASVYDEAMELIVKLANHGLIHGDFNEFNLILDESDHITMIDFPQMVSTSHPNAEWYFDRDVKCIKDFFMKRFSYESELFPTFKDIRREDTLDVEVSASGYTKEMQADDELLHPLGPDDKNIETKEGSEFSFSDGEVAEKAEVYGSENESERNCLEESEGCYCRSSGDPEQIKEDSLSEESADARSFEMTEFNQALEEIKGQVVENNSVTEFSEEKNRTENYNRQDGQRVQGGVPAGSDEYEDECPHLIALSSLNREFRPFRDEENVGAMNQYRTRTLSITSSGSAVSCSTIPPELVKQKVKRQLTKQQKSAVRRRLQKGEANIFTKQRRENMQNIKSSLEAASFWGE

Compound	inhibition at 1 µM (human RIOK2 protein) [%]	inhibition at 10 µM (human RIOK2 protein) [%]	IC50 (ACHN CSC) [µM]	IC50 (FaDu CSC) [µM]	IC50 (A549 CSC) [µM]	IC50 (ACHN) [µM]	IC50 (FaDu) [µM]	IC50 (A549) [µM]
CCN(CC)CCNC(=O)c1c(C)[nH]c(/C=C2\C(=O)Nc3ccc(-c4ccnn4-c4ccccc4F)cc32)c1C [Example 58]	56	116	–	–	–	–	–	–
CCN(CC)CCNC(=O)c1c(C)[nH]c(/C=C2\C(=O)Nc3ccc(-c4ccnn4-c4cccc(OC)c4)cc32)c1C [Example 62]	51	98	–	–	–	–	–	–
Cc1[nH]c(/C=C2\C(=O)Nc3ccc(-c4cnn(-c5ccccc5)c4)cc32)c(C)c1C(=O)NC1(CN2CCCCC2)CC1 [Example 97]	6	107	–	–	–	–	–	–
CCN(CC)CCNC(=O)c1c(C)[nH]c(/C=C2\C(=O)Nc3ccc(-c4ccnn4-c4cccc(C)c4)cc32)c1C [Example 61]	29	137	–	–	–	–	–	–
Cc1[nH]c(/C=C2\C(=O)Nc3ccc(-c4cnn(-c5ccccc5)c4)cc32)c(C)c1C(=O)NC[C@H]1CCCN1 [Example 100]	9	126	–	–	–	–	–	–
CCN(CC)CCNC(=O)c1c(C)[nH]c(/C=C2\C(=O)Nc3ccc(-c4ccnn4-c4ccc(Cl)c(Cl)c4)cc32)c1C [Example 65]	18	87	–	–	–	–	–	–
Cc1[nH]c(/C=C2\C(=O)Nc3ccc(-c4cnn(-c5ccccc5)c4)cc32)c(C)c1C(=O)N[C@@H]1CCCNC1 [Example 89]	22	130	–	–	–	–	–	–
CCN(CC)CCNC(=O)c1c(C)[nH]c(/C=C2\C(=O)Nc3ccc(-c4ccnn4-c4ccc(C(F)(F)F)cc4)cc32)c1C [Example 60]	9	68	–	–	–	–	–	–
CCN(CC)CCNC(=O)c1c(C)[nH]c(/C=C2\C(=O)Nc3ccc(-c4ccnn4-c4ccc(OC)cc4)cc32)c1C [Example 59]	34	106	–	–	–	–	–	–
CCN(CC)CCNC(=O)c1c(C)[nH]c(/C=C2\C(=O)Nc3ccc(-c4cnn(-c5ccncn5)c4)cc32)c1C [Example 69]	40	109	–	–	–	–	–	–
Cc1[nH]c(/C=C2\C(=O)Nc3ccc(-c4cnn(-c5ccccc5)c4)cc32)c(C)c1C(=O)NC1CNCC(c2ccccc2)C1 (stereo not drawn) [Example 96]	-13	69	–	–	–	–	–	–
CCN(CC)CCNC(=O)c1c(C)[nH]c(/C=C2\C(=O)Nc3ccc(-c4cnn(-c5ccc(S(N)(=O)=O)cc5)c4)cc32)c1C [Example 74]	26	71	–	–	–	–	–	–
O=C1Nc2ccc(-c3csc(-c4ccncc4)n3)cc2/C1=C/c1cnc[nH]1 [Example 152]	–	–	28.9	22.1	7.18	3.61	1.66	9.19
CCN(CC)CCNC(=O)c1c(C)[nH]c(/C=C2\C(=O)Nc3cc(-c4csc(-n5cccn5)n4)ccc32)c1C [Example 254]	–	–	0.17	0.78	2.93	2.6	5.3	5.8
CCN(CC)CCNC(=O)c1c(C)[nH]c(/C=C2\C(=O)Nc3ccc(-c4ccc(C=O)cc4)cc32)c1C [Example 266]	–	–	4.34	7.51	5.84	2.81	12.1	10.6
Cc1cc(C)c(/C=C2\C(=O)Nc3ccc(-c4csc(-n5ccnc5)n4)cc32)[nH]1 [Example 215]	–	–	2.72	37.4	35	8.84	14.5	9.31
COC(=O)c1c(C)[nH]c(/C=C2\C(=O)Nc3ccc(-c4csc(-c5ccncc5)n4)cc32)c1C [Example 145]	–	–	6.16	6.74	4.8	12.6	18.6	9.61
CCN(CC)CCNC(=O)c1c(C)[nH]c(/C=C2\C(=O)Nc3ccc(-c4ncccc4OC)cc32)c1C [Example 189]	–	–	1.41	0.07	6.84	7.14	2.63	7.48
CCN(CC)CCNC(=O)CCc1c(C)[nH]c(/C=C2\C(=O)Nc3ccc(-c4csc(-c5ccccc5)n4)cc32)c1C [Example 149]	–	–	4.23	3.53	8.74	2.48	3.85	1.11
Cc1ccc(-c2nc(-c3ccc4c(c3)/C(=C/c3[nH]c(C)c(C(=O)NCCN5CCCC5)c3C)C(=O)N4)cs2)cc1 [Example 103]	–	–	0.14	0.31	12.2	2.32	4.22	5.99
CCN(CC)CCN(C)C(=O)c1c(C)[nH]c(/C=C2\C(=O)Nc3ccc(-c4csc(-c5ccccc5)n4)cc32)c1C [Example 129, (Z)-N-(2-(diethylamino)ethyl)-N,2,4-trimethyl-5-((2-oxo-5-(2-phenylthiazol-4-yl)indolin-3-ylidene)methyl)-1H-pyrrole-3-carboxamide]	–	–	0.69	3.6	10.5	11.3	18.3	9.94
CCN(CC)CCNC(=O)c1c(C)[nH]c(/C=C2\C(=O)Nc3ccc(-c4nc5ccccc5s4)cc32)c1C [Example 191]	–	–	0.98	5.97	4.13	9.53	4.93	3.73
O=C1Nc2ccc(-c3csc(C4CCNCC4)n3)cc2/C1=C/c1cc2ccccc2[nH]1 [Example 168]	–	–	0.1	0.76	2.04	4.12	5.16	5.55
CCN(CC)CCNC(=O)c1c(C)[nH]c(/C=C2\C(=O)Nc3ccc(-c4ccc5c(c4)CC(=O)N5)cc32)c1C [Example 270]	–	–	20.8	15.5	29.2	18.9	25.4	19.7
CCN(CC)CCNC(=O)c1c(C)[nH]c(/C=C2\C(=O)Nc3ccc(-c4cnc5ccccn45)cc32)c1C [Example 192]	–	–	3.44	17.6	17.2	4.65	4.63	5.86
CCN(CC)CCNC(=O)c1c(C)[nH]c(/C=C2\C(=O)Nc3ccc(-c4cnccn4)cc32)c1C [Example 180]	–	–	2.65	0.23	13.2	10.1	6.62	10.6
CCN(CC)CCNC(=O)c1c(C)[nH]c(/C=C2\C(=O)Nc3ccc(-c4ccc(C(=O)O)s4)cc32)c1C [Example 209]	–	–	2.28	4.3	8.82	2.04	1.21	2.2
CCN(CC)CCNC(=O)c1c(C)[nH]c(/C=C2\C(=O)Nc3cc(-c4ccc(O)cc4C)ccc32)c1C [Example 265]	–	–	2.17	1.54	7.55	2.53	2.14	2.76
CCN(CC)CCNC(=O)c1c(C)[nH]c(/C=C2\C(=O)Nc3ccc(-c4cnsc4)cc32)c1C [Example 200]	–	–	0.64	3.42	6.66	4.58	3.17	3.79
CCN(CC)CCNC(=O)c1c(C)[nH]c(/C=C2\C(=O)Nc3ccc(-c4ccncc4)cc32)c1C [Example 208]	–	–	2.14	16.2	9.85	11.6	6.81	7.07
